Reference: patent US20050095240A1, “NaCT as a target for lifespan expansion and weight reduction” (Medical College of Georgia Research, priority 2002, published 2005)
Like-named read-outs stand apart in the source and are kept apart here.

Tests used:
[1] = molecular target: T1, ceNaCT (Caenorhabditis elegans, UniProt P32739, I91S/L182M); assay: Uptake via ceNaCT expressed in HRPE cells; conditions: for Competition with [^14C]citrate for ceNaCT-mediated uptake: competitor 2.5 mM, [14C]citrate 15 μM
T1 sequence (P32739 1-551 I91S/L182M): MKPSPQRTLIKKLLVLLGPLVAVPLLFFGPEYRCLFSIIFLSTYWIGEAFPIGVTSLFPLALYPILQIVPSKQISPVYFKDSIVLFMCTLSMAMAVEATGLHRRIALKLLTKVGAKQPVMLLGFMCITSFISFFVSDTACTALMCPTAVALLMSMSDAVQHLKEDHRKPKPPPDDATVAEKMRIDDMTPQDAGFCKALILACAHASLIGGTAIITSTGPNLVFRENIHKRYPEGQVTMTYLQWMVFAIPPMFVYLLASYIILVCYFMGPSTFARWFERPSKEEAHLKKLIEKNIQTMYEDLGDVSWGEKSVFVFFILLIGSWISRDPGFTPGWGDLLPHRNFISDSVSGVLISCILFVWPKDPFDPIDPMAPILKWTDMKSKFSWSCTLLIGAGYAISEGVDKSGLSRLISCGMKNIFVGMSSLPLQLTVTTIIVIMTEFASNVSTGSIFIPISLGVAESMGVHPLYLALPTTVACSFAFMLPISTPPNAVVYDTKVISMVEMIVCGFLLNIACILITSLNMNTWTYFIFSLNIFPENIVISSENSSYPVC

[2] = molecular target: T2, mouse NaCT (Mus musculus, UniProt Q67BT3); assay: Transport via mouse NaCT expressed in HRPE cells; assay type: cell-based; conditions: for [^3H]-Succinate transport (NaCT-specific) / [^3H]-Succinate transport, %: [3H]-succinate 0.1 μM; for [^3H]-Succinate transport (NaCT-specific) / [^3H]-Succinate transport, % / [^14C]-Citrate transport (NaCT-specific) / [^14C]-Citrate transport, %: substrate analog 2 mM; for [^3H]-Succinate transport, % / [^14C]-Citrate transport, %: control = 100; for [^14C]-Citrate transport (NaCT-specific) / [^14C]-Citrate transport, %: [14C]-citrate 10 μM
T2 sequence (Q67BT3 1-572): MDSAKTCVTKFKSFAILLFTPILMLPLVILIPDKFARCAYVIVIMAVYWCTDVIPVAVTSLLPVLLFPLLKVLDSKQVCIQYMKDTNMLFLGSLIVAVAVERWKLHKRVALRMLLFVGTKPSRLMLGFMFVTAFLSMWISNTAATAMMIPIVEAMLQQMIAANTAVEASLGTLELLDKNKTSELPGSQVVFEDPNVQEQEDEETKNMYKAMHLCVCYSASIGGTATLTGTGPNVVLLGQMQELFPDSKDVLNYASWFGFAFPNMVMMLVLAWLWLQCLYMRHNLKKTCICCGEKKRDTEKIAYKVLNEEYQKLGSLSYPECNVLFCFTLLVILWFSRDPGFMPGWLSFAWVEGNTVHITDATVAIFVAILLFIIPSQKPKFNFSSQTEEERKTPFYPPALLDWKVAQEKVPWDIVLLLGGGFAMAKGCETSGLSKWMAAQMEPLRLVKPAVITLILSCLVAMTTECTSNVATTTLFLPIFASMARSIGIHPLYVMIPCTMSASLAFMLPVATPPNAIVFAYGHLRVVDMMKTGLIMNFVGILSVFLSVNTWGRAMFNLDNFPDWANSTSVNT

[3] = molecular target: drIndy (Drosophila melanogaster, UniProt Q9VVT2); conditions: for % Control of cDNA-specific [^3H]succinate uptake / cDNA-specific [^3H] succinate uptake: [3H]succinate 40 nM, inhibitor 2.5 mM; for cDNA-specific [^3H] succinate uptake: NaCl buffer pH 7.5; for Uptake in drIndy cDNA-transfected cells vs vector alone / Succinate uptake mediated by drIndy: succinate 40 nM
Chain of drIndy (Q9VVT2 19-590): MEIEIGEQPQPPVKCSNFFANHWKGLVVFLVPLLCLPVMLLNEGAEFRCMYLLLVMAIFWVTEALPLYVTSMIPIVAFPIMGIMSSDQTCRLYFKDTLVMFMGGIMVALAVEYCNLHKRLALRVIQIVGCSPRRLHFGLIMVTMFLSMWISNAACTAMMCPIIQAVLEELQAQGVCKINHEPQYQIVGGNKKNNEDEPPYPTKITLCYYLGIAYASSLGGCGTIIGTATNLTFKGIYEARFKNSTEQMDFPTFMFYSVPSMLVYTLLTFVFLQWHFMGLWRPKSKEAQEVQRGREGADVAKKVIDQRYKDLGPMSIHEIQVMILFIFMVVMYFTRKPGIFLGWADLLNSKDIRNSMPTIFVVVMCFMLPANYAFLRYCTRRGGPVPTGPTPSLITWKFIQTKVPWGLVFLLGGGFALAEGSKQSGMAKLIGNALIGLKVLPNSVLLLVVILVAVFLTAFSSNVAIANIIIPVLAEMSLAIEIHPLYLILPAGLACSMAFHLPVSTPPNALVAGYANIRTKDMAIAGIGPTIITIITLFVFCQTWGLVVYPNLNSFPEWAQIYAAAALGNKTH

[4] = molecular target: T3, rat NaCT (Rattus norvegicus, UniProt Q8CJ44); assay: Rat NaCT in X. laevis oocytes, voltage clamp and charge-to-substrate ratio; assay type: cell-based; conditions: for Charge-to-substrate ratio: 50 μM substrate, −50 mV, 10 min
T3 sequence (Q8CJ44 1-572): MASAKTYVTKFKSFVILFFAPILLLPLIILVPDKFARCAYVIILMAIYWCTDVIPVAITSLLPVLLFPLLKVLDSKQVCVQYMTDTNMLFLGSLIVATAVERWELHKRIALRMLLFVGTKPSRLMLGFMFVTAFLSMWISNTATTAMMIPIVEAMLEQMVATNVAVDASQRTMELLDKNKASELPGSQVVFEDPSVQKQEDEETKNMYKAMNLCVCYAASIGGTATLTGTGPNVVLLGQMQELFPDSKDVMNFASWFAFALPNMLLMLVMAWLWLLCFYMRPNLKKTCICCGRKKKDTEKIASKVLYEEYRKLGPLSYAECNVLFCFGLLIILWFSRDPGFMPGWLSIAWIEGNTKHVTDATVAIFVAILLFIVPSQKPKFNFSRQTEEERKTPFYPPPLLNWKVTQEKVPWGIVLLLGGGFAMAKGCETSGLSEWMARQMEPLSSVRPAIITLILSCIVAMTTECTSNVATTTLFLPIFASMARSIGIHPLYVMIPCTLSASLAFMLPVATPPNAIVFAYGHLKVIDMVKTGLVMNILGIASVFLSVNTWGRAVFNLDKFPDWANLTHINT

[5] = molecular target: T4, hNaDC3 (Homo sapiens, UniProt Q8WWT9)
T4 sequence (Q8WWT9 1-602): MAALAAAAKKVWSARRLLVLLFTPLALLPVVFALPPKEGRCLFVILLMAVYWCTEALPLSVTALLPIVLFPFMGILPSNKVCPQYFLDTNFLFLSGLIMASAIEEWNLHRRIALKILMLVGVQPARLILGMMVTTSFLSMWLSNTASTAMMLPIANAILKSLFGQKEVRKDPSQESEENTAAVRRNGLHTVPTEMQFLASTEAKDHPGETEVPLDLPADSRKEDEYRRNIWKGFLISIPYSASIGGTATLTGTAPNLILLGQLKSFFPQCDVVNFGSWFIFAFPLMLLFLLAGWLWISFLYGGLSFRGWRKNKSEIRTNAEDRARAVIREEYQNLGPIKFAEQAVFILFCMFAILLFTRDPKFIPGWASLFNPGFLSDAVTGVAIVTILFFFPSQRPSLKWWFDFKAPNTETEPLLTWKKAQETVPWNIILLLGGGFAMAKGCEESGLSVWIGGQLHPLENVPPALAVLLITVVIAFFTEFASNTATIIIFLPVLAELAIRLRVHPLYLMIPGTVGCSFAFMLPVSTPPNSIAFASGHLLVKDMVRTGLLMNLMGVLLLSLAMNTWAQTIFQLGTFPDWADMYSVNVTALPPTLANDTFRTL

[6] = molecular target: zebrafish NaCT (Danio rerio, UniProt A0A2R8QQN0, K78Q); assay: Citrate uptake via zebrafish NaCT expressed in HRPE cells; assay type: cell-based
Chain of zebrafish NaCT (A0A2R8QQN0 2-582 K78Q): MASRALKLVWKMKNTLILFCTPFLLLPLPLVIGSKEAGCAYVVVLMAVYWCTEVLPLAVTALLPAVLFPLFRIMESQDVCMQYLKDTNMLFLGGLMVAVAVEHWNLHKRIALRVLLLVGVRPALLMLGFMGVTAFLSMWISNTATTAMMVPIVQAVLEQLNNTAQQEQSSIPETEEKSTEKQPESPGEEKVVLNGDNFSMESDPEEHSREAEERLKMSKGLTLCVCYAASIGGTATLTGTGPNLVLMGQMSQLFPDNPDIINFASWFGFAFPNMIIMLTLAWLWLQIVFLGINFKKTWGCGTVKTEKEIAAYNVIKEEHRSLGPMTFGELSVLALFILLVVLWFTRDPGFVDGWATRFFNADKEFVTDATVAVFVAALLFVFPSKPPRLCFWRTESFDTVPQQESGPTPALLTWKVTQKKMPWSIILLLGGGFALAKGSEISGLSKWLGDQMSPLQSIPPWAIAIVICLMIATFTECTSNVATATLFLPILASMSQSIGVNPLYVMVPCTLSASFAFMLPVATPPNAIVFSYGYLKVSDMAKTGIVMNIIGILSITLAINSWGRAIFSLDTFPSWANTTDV

[7] = molecular target: T3, rat NaCT; assay: Uptake via rat NaCT expressed in HRPE cells; assay type: cell-based; conditions: for [^14C]Citrate uptake (cDNA-specific) / [^14C]Citrate uptake, %: [14C]citrate 14 μM, unlabeled compound 2.5 mM; for [^14C]Citrate uptake, %: none = 100; for Uptake in rat NaCT cDNA-transfected cells vs vector alone: succinate 80 nM, pyruvate 135 μM, citrate 35 μM, Na+ gradient
[8] = presence of Na+, citrate 35 μM, pyruvate 135 μM

O=C(O)CC(O)(CC(=O)O)C(=O)O [Citrate]
Uptake in ceNaCT-expressing cells vs vector-transfected control cells ([1]; [14C]citrate 10 μM, Na+, pH 7.5): approximately 45 fold | Uptake of [^14C]citrate in cells expressing ceNaCT ([1]; citrate 10 μM, Na+, pH 7.5): 61±5 pmol/10^6 Cells/min | Competition with [^14C]citrate for ceNaCT-mediated uptake [1]: potent inhibitor | Vmax for transport via ceNaCT ([1]; pH 7.5): 270±13 pmol/10^6 cells/min | Maximal velocity (Vmax) [2]: 118±6 pmol/10^6 cells/min | Michaelis-Menten constant (Kt) for transport via mouse NaCT [2]: 22 ± 2 µM | [^3H]-Succinate transport (NaCT-specific) [2]: 0.004 ± 0.001 pmol/10^6 cells/min | [^3H]-Succinate transport, % [2]: 3% | [^14C]-Citrate transport (NaCT-specific) [2]: 0.7 ± 0.1 pmol/10^6 cells/min | [^14C]-Citrate transport, % [2]: 2% | Transport of citrate in cDNA-transfected cells ([2]; citrate 20 μM): 48.4±1.0 pmol/10^6 cells/min | Transport in mouse NaCT cDNA-transfected cells vs vector alone ([2]; succinate 50 nM, citrate 20 μM): 20.2 fold | % Control of cDNA-specific [^3H]succinate uptake [3]: 13% | cDNA-specific [^3H] succinate uptake [3]: 18.6 ± 3.0 fmol/106 cells per min | Uptake in drIndy cDNA-transfected cells vs vector alone [3, 8]: approximately 30 fold | Charge-to-substrate ratio [4]: 1 | Currents in rat NaCT oocytes compared to mouse NaCT ([4]; 0.5 mM citrate): 3 fold | Citrate-induced current ([4]; 0.5 mM citrate, three oocytes): 87±8 nA | Lower affinity of hNaDC3 than drIndy for citrate [5]: 20 fold | IC50 [6]: 30 ± 4 µM | Km ([6]; read-out: Michaelis constant for citrate uptake, hrpe cells, 30 min): 40 ± 4 µM | IC50 [7]: 28 ± 4 µM | Ki [7]: 16 ± 2 µM | Kt (Michaelis-Menten constant) for citrate uptake via rat NaCT [7]: 18 ± 4 µM | [^14C]Citrate uptake (cDNA-specific) [7]: 1.5 ± 0.1 Pmol/10^6 cells/min | [^14C]Citrate uptake, % [7]: 1% | Uptake in rat NaCT cDNA-transfected cells vs vector alone [7]: approximately 90 fold

O=C(O)CCC(=O)O [Succinate, succinate]
Competition with [^14C]citrate for ceNaCT-mediated uptake [1]: inhibited markedly | Vmax for transport via ceNaCT ([1]; pH 7.5): 210±8 pmol/10^6 cells/min | Km ([1]; read-out: Michaelis-Menten constant (Kt) for transport via ceNaCT, pH 7.5, 30 min): 88 ± 13 µM | Maximal velocity (Vmax) [2]: 80±5 pmol/10^6 cells/min | Michaelis-Menten constant (Kt) for transport via mouse NaCT [2]: 33 ± 4 µM | [^3H]-Succinate transport (NaCT-specific) [2]: 0.007 ± 0.003 pmol/10^6 cells/min | [^3H]-Succinate transport, % [2]: 5% | [^14C]-Citrate transport (NaCT-specific) [2]: 0.1 ± 0.1 pmol/10^6 cells/min | [^14C]-Citrate transport, % [2]: 1% | Transport of succinate in cDNA-transfected cells ([2]; succinate 50 nM): 42.7±4.6 fmol/10^6 cells/min | Transport in mouse NaCT cDNA-transfected cells vs vector alone ([2]; succinate 50 nM, citrate 20 μM): 7.8 fold | % Control of cDNA-specific [^3H]succinate uptake [3]: 6% | cDNA-specific [^3H] succinate uptake [3]: 4.6 ± 0.4 fmol/106 cells per min | Uptake in drIndy cDNA-transfected cells vs vector alone ([3]; absence of Na+): 15 fold | Uptake in drIndy cDNA-transfected cells vs vector alone [3, 8]: 20 fold | Km ([3]; read-out: Michaelis-Menten constant (Km) for transport via drIndy, presence of Na+): 40 ± 4 µM | Succinate uptake mediated by drIndy ([3]; pH 5): 52±2 fmol/10^6 cells per minute | Succinate uptake mediated by drIndy ([3]; pH 8): 127±5 fmol/10^6 cells per minute | Charge-to-substrate ratio [4]: 2 | Uptake in hNaDC3 cDNA-transfected cells vs vector ([5]; succinate 40 nM, presence of Na+): 200 fold | IC50 [6]: 51 ± 9 µM | Affinity of rat NaCT for succinate lower than for citrate [7]: 6 fold | IC50 [7]: 172 ± 24 µM | Ki [7]: 98 ± 14 µM | [^14C]Citrate uptake (cDNA-specific) [7]: 5.7 ± 0.2 Pmol/10^6 cells/min | [^14C]Citrate uptake, % [7]: 5% | Succinate uptake at physiological concentrations ([7]; medium with 135 μM citrate and 40 μM succinate): 0.005±0.001 nmol/10^6 cells/minute | Uptake in rat NaCT cDNA-transfected cells vs vector alone [7]: about 7 fold
